# ChEMBL document CHEMBL1201862, “PubChem BioAssay data set” (2004)
#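 Five compound concentrations were applied to cells in 96-well plates for 48 hours; endpoints were derived by simple linear interpolation of the resulting dose-response curve. GI50: concentration for 50% inhibition of growth.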 Calls of active or inactive are those of the source. No stated cut-off is given here; in the data, active = GI50 up to about 1.1 µM and inactive = higher.
# Legend:
# Assay in all cases: DTP human tumour cell line panel, 48 h
# U-251 = test system: U-251
# HT-29 = test system: HT-29
# SK-MEL-28 = test system: SK-MEL-28
# UO-31 = test system: UO-31
# M14 = test system: M14
# UACC-257 = test system: UACC-257
# COLO 205 = test system: COLO 205
# RPMI-8226 = test system: RPMI-8226
# OVCAR-5 = test system: OVCAR-5
# MOLT-4 = test system: MOLT-4
# NCI-H226 = test system: NCI-H226
# ACHN = test system: ACHN
# SF-295 = test system: SF-295
# SN12C = test system: SN12C
# NCI-H23 = test system: NCI-H23
# LOX IMVI = test system: LOX IMVI
# OVCAR-3 = test system: OVCAR-3
# Malme-3M = test system: Malme-3M
# EKVX = test system: EKVX
# SF-539 = test system: SF-539
Structure (SMILES),GI50 (U-251),GI50 (HT-29),GI50 (SK-MEL-28),GI50 (UO-31),GI50 (M14),GI50 (UACC-257),GI50 (COLO 205),GI50 (RPMI-8226),GI50 (OVCAR-5),GI50 (MOLT-4),GI50 (NCI-H226),GI50 (ACHN),GI50 (SF-295),GI50 (SN12C),GI50 (NCI-H23),GI50 (LOX IMVI),GI50 (OVCAR-3),GI50 (Malme-3M),GI50 (EKVX),GI50 (SF-539)
CCOP(=O)(OCC)C(Cc1c[nH]c2ccccc12)C(=O)O (stereo not drawn),> 100 µM (inactive),> 100 µM (inactive),> 100 µM (inactive),> 100 µM (inactive),> 100 µM (inactive),> 100 µM (inactive),> 100 µM (inactive),> 100 µM (inactive),> 100 µM (inactive),> 100 µM (inactive),> 100 µM (inactive),> 100 µM (inactive),> 100 µM (inactive),> 100 µM (inactive),> 100 µM (inactive),> 100 µM (inactive),> 100 µM (inactive),,,
COc1ccc(CCC2NCCc3cc(OC)c(OC)cc32)cc1 (stereo not drawn),> 100 µM (inactive),> 100 µM (inactive),> 100 µM (inactive),88.1 µM (inactive),> 100 µM (inactive),> 100 µM (inactive),,> 100 µM (inactive),> 100 µM (inactive),> 100 µM (inactive),,> 100 µM (inactive),> 100 µM (inactive),> 100 µM (inactive),> 100 µM (inactive),,> 100 µM (inactive),> 100 µM (inactive),> 100 µM (inactive),> 100 µM (inactive)
CCOC(=O)c1c(-c2ccccc2)c(C(OC(c2ccccc2)c2c(-c3ccccc3)c(C(=O)OCC)n3ccccc23)c2ccccc2)c2ccccn12 (stereo not drawn),,> 100 µM (inactive),> 100 µM (inactive),> 100 µM (inactive),> 100 µM (inactive),> 100 µM (inactive),> 100 µM (inactive),> 100 µM (inactive),> 100 µM (inactive),> 100 µM (inactive),> 100 µM (inactive),> 100 µM (inactive),> 100 µM (inactive),> 100 µM (inactive),> 100 µM (inactive),> 100 µM (inactive),> 100 µM (inactive),> 100 µM (inactive),> 100 µM (inactive),
CN=S(=O)(C[C@]1(O)CC2OC1C1OC(C)(C)OC21)c1ccccc1 (stereo partly drawn),> 100 µM (inactive),> 100 µM (inactive),> 100 µM (inactive),,> 100 µM (inactive),> 100 µM (inactive),> 100 µM (inactive),> 100 µM (inactive),> 100 µM (inactive),> 100 µM (inactive),> 100 µM (inactive),> 100 µM (inactive),> 100 µM (inactive),> 100 µM (inactive),> 100 µM (inactive),,> 100 µM (inactive),> 100 µM (inactive),> 100 µM (inactive),> 100 µM (inactive)
O=C1/C(=C/c2ccccc2)CN(C(=O)C(Cl)(Cl)Cl)C/C1=C\c1ccccc1,1.64 µM (inactive),1.23 µM (inactive),1.73 µM (inactive),2.59 µM (inactive),1.26 µM (inactive),1.58 µM (inactive),2.25 µM (inactive),0.0348 µM (active),2.51 µM (inactive),1.36 µM (inactive),,2.01 µM (inactive),1.82 µM (inactive),1.72 µM (inactive),2.37 µM (inactive),0.94 µM (active),2.86 µM (inactive),2.11 µM (inactive),9.23 µM (inactive),3.12 µM (inactive)
O=C1c2ccccc2C(=O)c2cc(/N=N/c3c(O)ccc4ccccc34)ccc21,56.4 µM (inactive),> 100 µM (inactive),> 100 µM (inactive),> 100 µM (inactive),> 100 µM (inactive),> 100 µM (inactive),> 100 µM (inactive),> 100 µM (inactive),> 100 µM (inactive),> 100 µM (inactive),> 100 µM (inactive),> 100 µM (inactive),> 100 µM (inactive),> 100 µM (inactive),> 100 µM (inactive),> 100 µM (inactive),> 100 µM (inactive),> 100 µM (inactive),89.7 µM (inactive),
N#CCC(=O)N/N=C1\C(=O)N(c2ccc(Cl)cc2)C(=O)C(=O)C1c1nc2ccccc2o1 (stereo not drawn),> 100 µM (inactive),> 100 µM (inactive),> 100 µM (inactive),> 100 µM (inactive),> 100 µM (inactive),> 100 µM (inactive),> 100 µM (inactive),,,> 100 µM (inactive),> 100 µM (inactive),> 100 µM (inactive),> 100 µM (inactive),> 100 µM (inactive),> 100 µM (inactive),,> 100 µM (inactive),> 100 µM (inactive),> 100 µM (inactive),> 100 µM (inactive)
CC(C)(C)c1ccc(-n2c3nc(=O)n(-c4ccccc4CO)c(=O)c-3cc3ccccc32)cc1,55.6 µM (inactive),26.6 µM (inactive),38.7 µM (inactive),42.1 µM (inactive),42.8 µM (inactive),30.5 µM (inactive),46.5 µM (inactive),,> 100 µM (inactive),16.1 µM (inactive),28 µM (inactive),69.7 µM (inactive),41.1 µM (inactive),57.7 µM (inactive),53.1 µM (inactive),20.5 µM (inactive),,> 100 µM (inactive),48.9 µM (inactive),30.5 µM (inactive)
